Measured values as given in US20070203159A1, “Purine compounds” (priority 2006, published 2007).
≈ marks a conversion by molar mass, not a printed value.

Experiments:
[1] = test system: Mycobacterium tuberculosis H37Rv (ATCC 27294); assay: Microplate Alamar Blue Assay (MABA): primary screening and MIC determination; type: cell-based; details: Mycobacterium tuberculosis; retest at lower concentrations in the MABA; read-out: MIC
[2] = test system: M. tuberculosis Erdman (ATCC 35801); assay: 90% and 99% effective concentration in M. tuberculosis infected macrophages; type: cell-based; details: for EC99 / EC^+99: monolayers of mouse bone marrow macrophages; for EC99: […]% reduction in residual mycobacterial growth after 7 days compared with untreated controls; for EC^+99: reduction in residual mycobacterial growth after 7 days compared with untreated controls

SMILES	MIC [1] [µg/mL]	EC90/MIC ([2]; MIC data from Table 1)	EC99 [2] [µg/mL]	EC^+99 [2] [µg/mL]	melting point [°C]
COc1ccc(Cn2cnc3c(-c4ccco4)ncnc32)cc1 [Example 33, 6-(2-Furyl)-9-(4-methoxyphenylmethyl)-9H-purine]	1.56 (≈ 5.09 µM)	>8.01	>12.5	>12.5	175 to 176
CSc1ccc(Cn2cnc3c(-c4ccco4)ncnc32)cc1 [Example 42, 6-(2-Furyl)-9-(4-methylthiophenylmethyl)-9H-purine]	6.25 (≈ 19.4 µM)				157 to 159
CN(C)c1ccc(Cn2cnc3c(-c4ccco4)ncnc32)cc1 [Example 43, 9-(4-Dimethylaminophenylmethyl)-6-(2-furyl)-9H-purine]	12.5 (≈ 39.1 µM)				158 to 160
Clc1nc(-c2ccco2)c2ncn(Cc3ccc(Cl)c(Cl)c3)c2n1 [Example 47, 2-Chloro-9-(3,4-dichlorophenylmethyl)-6-(2-furyl)-9H-purine]	6.25 (≈ 16.5 µM)				191 to 193
Clc1cccc(Cn2cnc3c(-c4ccco4)nc(Cl)nc32)c1 [Example 48, 2-Chloro-9-(3-chlorophenylmethyl)-6-(2-furyl)-9H-purine]	3.13 (≈ 9.07 µM)				196 to 198
Fc1ccc(Cn2cnc3c(-c4ccco4)nc(Cl)nc32)cc1 [Example 49, 2-Chloro-9-(4-fluorophenylmethyl)-6-(2-furyl)-9H-purine]	3.13 (≈ 9.52 µM)				152 to 155
COc1ccc(Cn2cnc3c(-c4ccco4)nc(Cl)nc32)cc1 [Example 51, 2-Chloro-6-(2-furyl)-9-(4-methoxyphenylmethyl)-9H-purine]	0.39 (≈ 1.14 µM)		0.67	0.02	
COc1cccc(Cn2cnc3c(-c4ccco4)nc(Cl)nc32)c1 [Example 52, 2-Chloro-6-(2-furyl)-9-(3-methoxyphenylmethyl)-9H-purine]	3.13 (≈ 9.19 µM)				160 to 161
COc1ccc(Cn2cnc3c(-c4ccco4)nc(Cl)nc32)cc1C [Example 53, 2-Chloro-6-(2-furyl)-9-(4-methoxy-3-methylphenylmethyl)-9H-purine]	0.78 (≈ 2.2 µM)				177 to 179
COc1ccc(Cn2cnc3c(-c4ccc(OC)cc4)nc(Cl)nc32)cc1 [Example 54, 2-Chloro-6-(4-methoxyphenyl)-9-(4-methoxyphenylmethyl)-9H-purine]	1.56 (≈ 4.1 µM)				152 to 154
COC(c1ccccc1)n1cnc2c(-c3cccs3)nc(Cl)nc21 (stereo not drawn) [Example 55, 2-Chloro-9-(methoxyphenylmethyl)-6-(2-thienyl)-9H-purine]	0.78 (≈ 2.19 µM)				183 to 185
COc1ccc(Cn2cnc3c(-c4ccco4)nc(SC)nc32)cc1 [Example 68, 6-(2-Furyl)-9-(4-methoxyphenylmethyl)-2-methylthio-9H-purine]	0.78 (≈ 2.21 µM)				147 to 148
COc1ccc(Cn2ccc3c(-c4ccco4)ncnc32)cc1 [Example 109, 4-(2-Furyl)-7-(4-methoxybenzyl)-7H-pyrrolo[2,3-d]pyrimidine]	0.39 (≈ 1.28 µM)				130 to 131
